Reference: patent US20160002310A1, “MODIFIED INGAP PEPTIDES FOR TREATING DIABETES” (THE ROYAL INSTITUTE FOR THE ADVANCEMENT OF LEARNING/MCGILL …, priority 2013, published 2016)
Entries after “also recorded” stand apart in the source; their conditions may differ. Blank lines part the entries; values can stand above or below the molecule they belong to. Positions of bridges follow the written chain, without caps; N, C: chain ends. Residues, ends and D or L forms follow the SMILES beside them. No end group written: not given here.

How the values were obtained:
Erk½ = assay: Effect of pharmacological inhibitors on INGAP-induced Erk½ phosphorylation in RIN-m5F cells; assay type: cell-based, rat; settings: for Effect of inhibitor on INGAP-induced Erk½ phosphorylation: inhibitor pretreatment, 10 min growth factor
Description: 1×10^6 cells were plated in 60 mm plates for 48 hours followed by a 24-h starvation in serum-free medium. Prior to addition of growth factors, cells were pretreated for 30-40 min with the indicated inhibitors, except for Pertussis Toxin (Ptx)(24 h pretreatment). After a 10 min treatment with growth factors, cells were placed on ice and lysed, as described in the Experimental Procedures. Blots (30 μg of proteins) were incubated with Phospho-Erk½ antibody (or with total Erk antibody after stripping) and developed using ECL reagent. Quantification of Erk phosphorylation relative to total Erk and time 0 min control (=1, shown as a dotted line) was performed as described above. (A): Inhibitors of GPCR (Ptx, 100 ng/m1), adenylate cyclase (SQ22536, 250 μM) and PKA (PKi, 100nM; H89, 1μM). (B): inhibitors of PKC (Bis, 1 μM), PI3K (Wm, 100 nM), Src(PP2, 100nM), EGFR(AG1478, 100nM) and Raf Inhibitor l(R-1, 100nM), or DMSO as a solvent (*: p<0.05).
(§1) To investigate signaling events implicated in INGAP induced proliferation, we employed specific pharmacological inhibitors of Raf (Raf inhibitor 1), PI3 K (wortmannin), PKC (Bis), PKA (H89, PKi), Adenylate cyclase (SQ22536), Src (PP2) and EGFR (AG1478). In addition, Pertussis toxin (Ptx) was used to examine whether INGAP actions were mediated by a GPCR. Effectiveness of these inhibitors was judged by Erk½ phosphorylation after 10 min of treatment with INGAP or EGF or Ex-4, and by BrdU incorporation after 24 h.

[1] = Peptide stability in RPMI-1640 medium with 25% FBS, HPLC; assay type: in vitro ADME; settings: for Comparative peptide stability in FBS: 50 μM peptide; for half-life at 50 μM: bovine
Description: (§2) 50 μM peptides were incubated in RPMI-1640 medium with 25% FBS for the times indicated. Following ethanol precipitation of serum proteins, samples were analyzed by HPLC. To compare dynamics of peptide degradation HPLC profiles were superimposed as shown.
(§3) 50 μM INGAP-PC and INGAP 19C were incubated in RPMI-1640 medium with 25% FBS for the times indicated. Following ethanol precipitation of serum proteins, samples were analyzed by HPLC. To compare dynamics of peptide degradation, HPLC profiles were superimposed as shown.
as §2, with “Degradation profiles of INGAP-P and INGAP-19 peptides in presence of serum were determined (FIG. 20). 50” for “50”
as §3, with “Time-course studies of in vitro incubation of INGAP-PC and INGAP-19C peptides in FBS were also performed (FIG. 21). 50” for “50”

[2] = Stability of 5-FAM labeled INGAP analogs in serum and pancreas of non-diabetic mice after IP injection; assay type: in vivo; settings: 500 mg/mouse IP, 10 min to 2 h
Description: Prior to the start of the STZ experiments, we tested the stability of INGAP analogs in the serum of non-diabetic mice by injecting 5-FAM labeled INGAP analogs (custom made at Canpeptide, Pointe Claire) at […] IP . The analogs were FAM labeled to determine the post-injection time needed for the peptides to reach the pancreas and to potentially identify the target cells. Mice were sacrificed after 10 min, 30 min, 1 h and 2 h (three mice per group) and blood and tissue samples were collected for processing. Blood serum was precipitated with methanol (1:3) to remove serum proteins and the resulting supernatant was analyzed by HPLC to detect presence of INGAP peptides.
These experiments need to be repeated by using cryosections vs paraffin section to minimize a potential loss of the fluorescence.

RIN-m5F cells [3] = assay: Effect of pharmacological inhibitors on INGAP-induced BrdU incorporation in RIN-m5F cells; assay type: cell-based, rat; settings: inhibitor pretreatment, 24 h
Description: Cells were plated in chamber slides and subjected to 30−40 min pretreatment with the indicated inhibitors prior to the addition of growth factors and incubated for 24 h. […] BrdU was added for the last three hours of treatment followed by fixation in Methanol and immunostaining for BrdU. Data are presented as a ratio of BrdU(+) cells (%) in treated versus untreated control. Results are means±S.E. of three independent experiments (*: p<0.05, †: p<0.001).
as §1

[4] = tested on: STZ (streptozotocin)-induced diabetes; design: species or system mice; settings: mouse, in vivo, ip
Description: In this part of the study, we used a well established model of STZ (streptozotocin)-induced diabetes, resulting in a substantial destruction of beta cell mass. Previous studies conducted in our lab have shown islet neogenic effects of INGAP-peptide (15 L) and INGAP protein after the 8-week administration daily.
Referring to FIG. 42, C57BL/6 J mice (Charles River) 20-25 g, were rendered diabetic by a single injection of 150 mg/kg of STZ. The animals with blood glycemias of 15-30 mM after 7 days were used for the experiment. At 7 days, mice were randomized into 5 groups, 10 mice per group, equal representation of each glycemia level, (average glycemia per group being 24.4+0.0167 mM) and were treated with […] of one of the analogs, IP, daily for 10 weeks. Blood glycemia values were taken weekly from the tip of the tail (fasting and/or non-fasting). The weight of animals was also taken weekly.
After 10 weeks of treatment, the animals were sacrificed and the pancreata were weighed and processed for RNA extraction (still ongoing) and Immunocytochemistry.

Akt = Akt phosphorylation in RIN-m5F cells; assay type: cell-based, rat; settings: time course
RIN-m5F cells [5] = assay: BrdU incorporation (proliferation) in RIN-m5F cells, 24 h; assay type: cell-based, rat; settings: positive control
Description: (A): INGAP increased BrdU incorporation. RIN-m5F cells were treated with indicated amounts of INGAP-P or r-INGAP for 24 h in chamber slides. Exendin 4 (Ex4) and EGF were used as controls. 50 μM BrdU was added for the last three hours of treatment followed by fixation in methanol and immunostaining for BrdU. Data are presented as a ratio of BrdU(+) cells (%) in INGAP-treated to untreated control. Results are means±S.E. of three independent experiments (*: p<0.05, §: p<0.001, compared to untreated control). (B): INGAP induced phosphorylation of Erk½ in RIN-m5F. RIN-m5F cells (1×10^6) plated in 60 mm tissue culture plates were treated with INGAP for the times indicated. Blots (30 μg protein) were probed with anti-Erk½-Phospho (Thr202/Tyr204) antibody, followed by stripping/reprobing with anti-total Erk½ antibody (Cell Signaling) and quantified by densitometry, using ImageJ software. (C): Quantification of relative Erk½ phosphorylation measured as a ratio of Phospho-Erk½ to total Erk½ and shown as a Fold Change relative to the 0 min time point. […]
Cells plated in 8-well or 4-well chamber slides (5×10^4 or 1×10^5 cells per well) were treated for 24 h with INGAP, EGF or Ex 4, as described above, and 50 μM BrdU was added during the last 3 hours of treatment. […] BrdU-positive and negative nuclei were counted (total 200 per well) and the percentage of BrdU-positive nuclei was calculated (FIG. 36).

Molecule: Nc1ncnc2c1ncn2C1CCCO1 (stereo not drawn) [SQ22536]
- Effect of inhibitor on INGAP-induced Erk½ phosphorylation (Erk½): slightly increased it

Molecule: COc1cc2ncnc(Nc3cccc(Cl)c3)c2cc1OC [AG1478]
- Effect of inhibitor on INGAP-induced Erk½ phosphorylation (Erk½): not affected

- Comparative peptide stability in FBS ([1]; RPMI-1640 with 25% FBS): no advantage of INGAP-19 over INGAP-P
- half-life at 50 μM ([1]; fetal bovine serum (25%) in RPMI-1640 culture medium, culture medium, preliminary HPLC data): 4 to 6 h
- Presence of peptide in blood serum after injection (HPLC) [2]: undetectable at 1 h
Molecule: IWIGLHDPSHGTLPNGSGW [INGAP-19, N′-IWIGLHDPSHGTLPNGSGW-C′]

Molecule: CC(C)(C)n1nc(-c2ccc(Cl)cc2)c2c(N)ncnc21 [PP2]
- Effect of inhibitor on BrdU incorporation induced by growth factors (RIN-m5F cells [3]): inhibited both Erk½ phosphorylation (FIG. 8B) and proliferation (FIG. 16) stimulated by r-INGAP, but not by INGAP-P
- Effect of inhibitor on INGAP-induced Erk½ phosphorylation (Erk½): inhibited both Erk½ phosphorylation (FIG. 8B) and proliferation (FIG. 16) stimulated by r-INGAP, but not by INGAP-P

Molecule: O=S(=O)(NCCNC/C=C/c1ccc(Br)cc1)c1cccc2cnccc12 [H89]
- Effect of inhibitor on BrdU incorporation induced by growth factors (RIN-m5F cells [3]): reduced BrdU incorporation in rINGAP treated cells

Molecule: Pertussis toxin [Ptx]
- Inhibition of INGAP-induced activation of Erk½ (Erk½; 24 h exposure to inhibitor, 10 min INGAP): 40%

- Losses of animals in group [4]: no losses
- half-life ([1]; buffer, culture medium, preliminary HPLC data): 4 to 6 h
Molecule: CC[C@H](C)[C@@H]1NC(=O)[C@@H](N)CSSC[C@@H](C(=O)O)NC(=O)[C@H](CO)NC(=O)CNC(=O)[C@H](CC(N)=O)NC(=O)[C@@H]2CCCN2C(=O)[C@H](CC(C)C)NC(=O)[C@H]([C@@H](C)O)NC(=O)CNC(=O)[C@H](Cc2c[nH]cn2)NC(=O)[C@H](CO)NC(=O)[C@@H]2CCCN2C(=O)[C@H](CC(=O)O)NC(=O)[C@H](Cc2c[nH]cn2)NC(=O)[C@H](CC(C)C)NC(=O)CNC1=O [INGAP-PC, N′-CIGLHDPSHGTLPNGSC-C′] (H-CIGLHDPSHGTLPNGSC-OH; disulfide 1-17)

Molecule: Exendin 4
- Akt phosphorylation (Akt): strongest activation of Akt
- BrdU incorporation, increase compared to negative control (RIN-m5F cells [5]; 10 nM): 1.56 ×

- Comparative peptide stability in FBS ([1]; RPMI-1640 with 25% FBS): degraded at a similar rate
- half-life at 50 μM ([1]; culture medium (RPMI-1640) with 25% fetal bovine serum, culture medium, preliminary HPLC data): 4 to 6 h
Molecule: IGLHDPSHGTLPNGS [INGAP-P, N′-IGLHDPSHGTLPNGS-C′]

- Losses of animals in group [4]: 1
- Degradation in presence of serum ([1]; 48 h, 50 μM, RPMI-1640 with 25% FBS): no degradation
- Time stable in culture medium ([1]; culture medium, preliminary HPLC data): up to 48 h
- Presence of peptide in blood serum after injection (HPLC) [2]: still detectable at 2 h
Molecule: CC[C@H](C)[C@@H]1NC(=O)[C@H](Cc2c[nH]c3ccccc23)NC(=O)[C@H]([C@@H](C)CC)NC(=O)[C@@H](N)CSSC[C@@H](C(=O)O)NC(=O)[C@H](Cc2c[nH]c3ccccc23)NC(=O)CNC(=O)[C@H](CO)NC(=O)CNC(=O)[C@H](CC(N)=O)NC(=O)[C@@H]2CCCN2C(=O)[C@H](CC(C)C)NC(=O)[C@H]([C@@H](C)O)NC(=O)CNC(=O)[C@H](Cc2c[nH]cn2)NC(=O)[C@H](CO)NC(=O)[C@@H]2CCCN2C(=O)[C@H](CC(=O)O)NC(=O)[C@H](Cc2c[nH]cn2)NC(=O)[C@H](CC(C)C)NC(=O)CNC1=O [INGAP-19C] (H-CIWIGLHDPSHGTLPNGSGWC-OH; disulfide 1-21)
- Comparative peptide stability in FBS ([1]; RPMI-1640 with 25% FBS): highest stability; also recorded: more stable than linear 15-mer (INGAP-P) or 19-mer (INGAP-19) peptides

Molecule: EGF: positive control growth factor, signals through a classical RTK pathway
- Akt phosphorylation (Akt): early activation of Akt
- BrdU incorporation, increase compared to negative control (RIN-m5F cells [5]; 10 ng/ml): 1.49 ×

Molecule: COc1cccc(-c2cc(=O)c3ccccc3o2)c1N [PD98059]
- Effect of inhibitor on BrdU incorporation induced by growth factors (RIN-m5F cells [3]): inhibition
- Effect of inhibitor on INGAP-induced Erk½ phosphorylation (Erk½): inhibition
